pEC50: −log10 of the molar value.
Assays:
[1] = biological target: T1, Ah receptor (AhR) (Mus musculus, UniProt P30561); experiment: yAhR nuclear translocation in yAHAYc6 cells, fluorescence microscopy; format: cell-based
T1 sequence (P30561 10-848): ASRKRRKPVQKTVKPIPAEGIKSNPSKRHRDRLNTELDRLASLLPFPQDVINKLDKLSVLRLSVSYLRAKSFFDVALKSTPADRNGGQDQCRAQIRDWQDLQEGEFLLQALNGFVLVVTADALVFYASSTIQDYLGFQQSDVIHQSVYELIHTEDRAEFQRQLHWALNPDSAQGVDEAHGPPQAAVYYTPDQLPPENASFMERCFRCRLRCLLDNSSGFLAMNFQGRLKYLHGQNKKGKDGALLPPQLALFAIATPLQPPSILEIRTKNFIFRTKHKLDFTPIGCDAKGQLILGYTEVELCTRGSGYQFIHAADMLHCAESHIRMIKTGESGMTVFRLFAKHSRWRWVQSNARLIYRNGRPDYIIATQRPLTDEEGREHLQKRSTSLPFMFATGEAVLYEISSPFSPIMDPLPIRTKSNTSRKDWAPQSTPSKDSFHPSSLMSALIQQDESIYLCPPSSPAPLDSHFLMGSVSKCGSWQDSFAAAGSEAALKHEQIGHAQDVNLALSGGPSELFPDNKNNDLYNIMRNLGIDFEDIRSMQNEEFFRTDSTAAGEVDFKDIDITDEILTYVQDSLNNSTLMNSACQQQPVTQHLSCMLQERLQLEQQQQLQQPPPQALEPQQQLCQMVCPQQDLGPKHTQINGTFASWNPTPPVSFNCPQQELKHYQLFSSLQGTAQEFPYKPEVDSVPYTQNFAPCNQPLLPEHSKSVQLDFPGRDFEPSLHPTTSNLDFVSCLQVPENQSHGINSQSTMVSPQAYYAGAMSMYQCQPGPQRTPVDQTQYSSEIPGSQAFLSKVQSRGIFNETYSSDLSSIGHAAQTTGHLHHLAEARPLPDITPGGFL

[2] = biological target: T1, Ah receptor (AhR); experiment: yAhR nuclear translocation in yAHAYc6 cells; format: cell-based

Q: How did the “yAhR nuclear translocation in yAHAYc6 cells, fluorescence microscopy” value (from here on “yAhR nuclear translocation”) [1] turn out when Cc1ccc2cc3c(ccc4ccccc43)c3c2c1CC3 [3-methylcholanthrene] was run?
A: The value was “known AhR agonists (TCDD, DBA, PCB77, indirubin, 3MC and BNF”.

Q: Which “yAhR nuclear translocation” value [1] does the source give for c1ccc2c(c1)ccc1cc3c(ccc4ccccc43)cc12 [dibenz(a,h)anthracene] here?
A: Its value is “known AhR agonists (TCDD, DBA, PCB77, indirubin, 3MC and BNF”.

Q: Clc1ccc(-c2ccc(Cl)c(Cl)c2)cc1Cl [PCB77, 3,3’,4,4’-Tetrachlorobiphenyl] was tested. Which “yAhR nuclear translocation” value [1] did it give?
A: Its value is “known AhR agonists (TCDD, DBA, PCB77, indirubin, 3MC and BNF”.

Q: How did the pEC50 [2] turn out when Clc1cc2c(cc1Cl)Oc1cc(Cl)c(Cl)cc1O2 [TCDD, 2,3,7,8-tetrachlorodibenzo-p-dioxin] was run?
A: The pEC50 was 9.70.

Q: O=C1Nc2ccccc2/C1=C1/Nc2ccccc2C1=O [indirubin] was tested. Which “yAhR nuclear translocation” value [1] did it give?
A: The value was “known AhR agonists (TCDD, DBA, PCB77, indirubin, 3MC and BNF”.
